Results published in US20220047530A1, “USE OF HORDENINE IN PREPARING DRUG FOR TREATING HYPOPHYSOMA” (Wuhan Third Hospital, priority 2019, published 2022).
Entries after “also recorded” stand apart in the source; their conditions may differ.

Columns and labels:
[1] = test system: IL-β; assay: ELISA of IL-β content in serum of rats with prolactinoma and adrenocorticotrophic hormone adenoma; assay type: in vivo, F344 rats (Rattus norvegicus); details: oral gavage 40, 20, 10 mg/kg once a day for 30 days; vs model group
From the text: 70 rats of the prolactinoma and adrenocorticotrophic hormone adenoma model as established in Step 1.1 “Establishment of Rattus norvegicus pituitary tumor model” and normal rats of the control group are used as samples.
The 70 F344 rats are randomly divided into the normal group, operation group, model group, positive drug group (bromocriptine positive drug group), high-dose hordenine group, medium-dose hordenine group, and low-dose hordenine group, […]. Except rats in the normal group and the operation group, rats in the other groups are all made into rats with prolactinoma and adrenocorticotrophic hormone adenoma.
Rats in the positive drug group are given an aqueous bromocriptine solution by gavage at a dose of 0.45 mg/kg. Rats in the high-, medium- and low-dose groups of an aqueous solution of hordenine are given an aqueous solution of hordenine by oral gavage at a dose of 40 mg/kg, 20 mg/kg, and 10 mg/kg, respectively. Rats in the normal group and the model group are given the same dose of distilled water. The administration is performed once a day for 30 days, and during this period of time, the rats are weighed every five days and the changes in body weight are recorded. […]
The contents of PRL and IL-β in the serum of rats in each group are determined by ELISA according to the procedures in the ELISA kit instructions.

[2] = test system: SD rats; assay: Acute toxicity test (maximum dose method); assay type: in vivo; set-up: key to Inflammation score: 0: no or very little inflammation; 1: mild inflammation; 2: moderate inflammation; 3: severe inflammation; details: for ALB / ALP / ALT / AST / DBIL / TBA / TBIL / TP / γ-GT: serum
From the text: The experimental animals are 40 SPF-grade SD rats, provided by the Experimental Animal Center of China Three Gorges University (SCXK (E)) 2017-0012), wherein half are males, and half are females, each with a body weight of 150 g; the animal number is: No. 42010200001245, and the experimental unit license number is: SYXK (E) 2014-0080.
5 SPF-grade SD rats are randomly selected for toxicity prediction. Another 30 SPF-grade SD rats are randomly selected, wherein half are males, and half are females. After the purchase of the animals, the animals are adaptively fed for one week. The rats are fasted at the night before the experiment (without stopping the provision of water). During the experiment, the animals are randomly divided into 3 groups, which are the control group, the low-dose hordenine treatment group (0.035 g/kg), and the high-dose hordenine treatment group (0.07 g/kg).
If no rats die in the pre-experiment, according to the acute toxicity test method, the maximum dose method is used, and hordenine is administered by gavage at a high dose of 0.07 g/kg and a low dose of 0.035 g/kg, respectively. The control group is given the same volume of saline. The administration is carried out twice a day (with an interval of no less than 4 hours) for 7 days, and the rats are fasted for 3 to 4 hours after the administration. The animals' immediate reactions are recorded, and the rats' appearance, behavior, activity, spirit, appetite, fur, breathing, weight, and the like, are carefully observed continuously for 14 days. The poisoning, death, and amounts of food and water consumed by the rats are recorded daily to determine the LD0 (0% mortality), LD100 (100% mortality) and the r value between the corresponding dose groups, and determine the LD50 (half lethal dose) value. For mice that die during the experiment, they should be dissected immediately to find the cause of their death. After the completion of the experiment, all survived rats are anesthetized by intraperitoneal injection of urethane, and immediately dissected to remove the heart, liver, spleen, lung, and kidney, which are observed with naked eyes for disease. And pathological sections of each organ are made: The tissues are fixed with a solution of 4% paraformaldehyde, conventionally sampled, dehydrated, embedded in paraffin, made into a slice (4 μm thick), stained with HE staining method, observed with an optical microscope, and photographed to roughly determine the target organs of toxicity. The serum of all experimental rats is used for the determination of routine blood biochemical indexes.

[3] = gavage 0.07 and 0.035 g/kg twice a day for 7 days
[4] = low-dose, high-dose vs control, P>0.05
[5] = high-dose group (0.07 g/kg), female
[6] = high-dose group (0.07 g/kg), male
[7] = low-dose group (0.035 g/kg), female
[8] = low-dose group (0.035 g/kg), male

CN(C)CCc1ccc(O)cc1 [hordenine, 4-(2-dimethylaminoethyl)phenol]
expression of IL-β in serum (ELISA) [1]: significantly inhibit
Inflammation score ([2]; Heart, female, high-dose group): 0
Inflammation score ([2]; Heart, female, low-dose group): 0
Inflammation score ([2]; Heart, male, high-dose group): 0
Inflammation score ([2]; Heart, male, low-dose group): 0
Inflammation score ([2]; Kidney, female, high-dose group): 0
Inflammation score ([2]; Kidney, female, low-dose group): 0
Inflammation score ([2]; Kidney, male, high-dose group): 1
Inflammation score ([2]; Kidney, male, low-dose group): 0
Inflammation score ([2]; Liver, female, high-dose group): 0
Inflammation score ([2]; Liver, female, low-dose group): 0
Inflammation score ([2]; Liver, male, high-dose group): 0
Inflammation score ([2]; Liver, male, low-dose group): 0
Inflammation score ([2]; Lung, female, high-dose group): 1
Inflammation score ([2]; Lung, female, low-dose group): 0
Inflammation score ([2]; Lung, male, high-dose group): 1
Inflammation score ([2]; Lung, male, low-dose group): 0
Inflammation score ([2]; Spleen, female, high-dose group): 1
Inflammation score ([2]; Spleen, female, low-dose group): 0
Inflammation score ([2]; Spleen, male, high-dose group): 1
Inflammation score ([2]; Spleen, male, low-dose group): 0
general clinical signs [2, 3]: no other adverse reactions
time to recovery of reduced activity after treatment [2, 3]: about 2 hours
death of rats ([2]; gavage 0.07 g/kg and 0.035 g/kg twice a day for 7 days): No rats die; also recorded: no Rattus norvegicus death
lethal dose ([2]; gavage, twice a day for 7 days): greater than 0.14 g/kg
inflammation in the liver, spleen, and kidneys (pathological slices and biochemical experiments) ([2]; high-dose group): slight inflammation
kidney pathology ([2]; high-dose group): topical renal tubule interstitial connective tissue of rats in the high-dose group is proliferated
liver pathology (hepatocytes) ([2]; high-dose group): extensive severe edema
lung pathology ([2]; high-dose group): proliferated alveolar epithelial cells, and the alveolar walls are thickened
spleen pathology (white pulp) ([2]; high-dose group): topical lymphocytes in the white pulp of the spleen tissue are reduced
tissue inflammatory response in the spleen, lung, and kidney ([2]; high-dose group): mild inflammatory response
kidney pathology ([2]; low-dose group): no obvious abnormality
liver pathology (hepatocytes) ([2]; low-dose group): extensive edema
lung pathology ([2]; low-dose group): a large number of proliferated alveolar epithelial cells
spleen pathology (white pulp) ([2]; low-dose group): A small amount of lymphocytes exhibit necrosis, apoptosis
tissue inflammatory response ([2]; low-dose group): no inflammatory response
liver function indexes [2, 4]: no significant influence
renal function (blood BUN and CREA) [2, 4]: no significant influence
body weight ([2]; one week after the treatment): physiological increase
ALB [2, 5]: 32.45 ± 1.61 g/L
ALP [2, 5]: 195.08 ± 92.02 U/L
ALT [2, 5]: 51.25 ± 4.84 U/L
AST [2, 5]: 141 ± 12.04 U/L
DBIL [2, 5]: 7.23 ± 1.72 µmol/L
TBA [2, 5]: 27.57 ± 12.2 µmol/L
TBIL [2, 5]: 13.4 ± 5.73 µmol/L
TP [2, 5]: 55.45 ± 2.31 g/L
γ-GT [2, 5]: 3.62 ± 1.97 U/L
ALB [2, 6]: 29.5 ± 1.05 g/L
ALP [2, 6]: 278.67 ± 38.64 U/L
ALT [2, 6]: 51.47 ± 6.19 U/L
AST [2, 6]: 147.02 ± 17.42 U/L
DBIL [2, 6]: 6.14 ± 0.86 µmol/L
TBA [2, 6]: 41.43 ± 10.19 µmol/L
TBIL [2, 6]: 10.08 ± 2.69 µmol/L
TP [2, 6]: 49.11 ± 2.17 g/L
γ-GT [2, 6]: 3.9 ± 2.10 U/L
ALB [2, 7]: 31.88 ± 1.02 g/L
ALP [2, 7]: 229.4 ± 70.39 U/L
ALT [2, 7]: 43.54 ± 3.84 U/L
AST [2, 7]: 146.92 ± 24.61 U/L
DBIL [2, 7]: 9.03 ± 5.05 µmol/L
TBA [2, 7]: 23.77 ± 6.9 µmol/L
TBIL [2, 7]: 11.67 ± 5.16 µmol/L
TP [2, 7]: 53.54 ± 1.24 g/L
γ-GT [2, 7]: 3.92 ± 1.78 U/L
ALB [2, 8]: 28.86 ± 0.55 g/L
ALP [2, 8]: 328.05 ± 53.25 U/L
ALT [2, 8]: 40.46 ± 5.55 U/L
AST [2, 8]: 116.65 ± 18.14 U/L
DBIL [2, 8]: 6.81 ± 2.83 µmol/L
TBA [2, 8]: 36.99 ± 10.95 µmol/L
TBIL [2, 8]: 10.64 ± 4.19 µmol/L
TP [2, 8]: 47.34 ± 1.99 g/L
γ-GT [2, 8]: 2.59 ± 1.84 U/L
pathological sections: toxicity to liver, spleen, lung and kidney ([2]; treatment groups): slight toxicity
physiological conditions, weight changes, behavioral activities vs control group ([2]; treatment groups): no significant differences
